Measurements reported in ChEMBL document CHEMBL3991601, “The target landscape of clinical kinase drugs” (Science, 2017).
Active and inactive are the calls of the source. For most assays here, no stated cut-off is given here; in the data, actives have a measured Kd and inactives only a lower limit.

How the values were obtained:
[1] = target: T1, DNA replication licensing factor MCM4 (Homo sapiens, UniProt P33991)
T1 sequence (P33991 whole entry): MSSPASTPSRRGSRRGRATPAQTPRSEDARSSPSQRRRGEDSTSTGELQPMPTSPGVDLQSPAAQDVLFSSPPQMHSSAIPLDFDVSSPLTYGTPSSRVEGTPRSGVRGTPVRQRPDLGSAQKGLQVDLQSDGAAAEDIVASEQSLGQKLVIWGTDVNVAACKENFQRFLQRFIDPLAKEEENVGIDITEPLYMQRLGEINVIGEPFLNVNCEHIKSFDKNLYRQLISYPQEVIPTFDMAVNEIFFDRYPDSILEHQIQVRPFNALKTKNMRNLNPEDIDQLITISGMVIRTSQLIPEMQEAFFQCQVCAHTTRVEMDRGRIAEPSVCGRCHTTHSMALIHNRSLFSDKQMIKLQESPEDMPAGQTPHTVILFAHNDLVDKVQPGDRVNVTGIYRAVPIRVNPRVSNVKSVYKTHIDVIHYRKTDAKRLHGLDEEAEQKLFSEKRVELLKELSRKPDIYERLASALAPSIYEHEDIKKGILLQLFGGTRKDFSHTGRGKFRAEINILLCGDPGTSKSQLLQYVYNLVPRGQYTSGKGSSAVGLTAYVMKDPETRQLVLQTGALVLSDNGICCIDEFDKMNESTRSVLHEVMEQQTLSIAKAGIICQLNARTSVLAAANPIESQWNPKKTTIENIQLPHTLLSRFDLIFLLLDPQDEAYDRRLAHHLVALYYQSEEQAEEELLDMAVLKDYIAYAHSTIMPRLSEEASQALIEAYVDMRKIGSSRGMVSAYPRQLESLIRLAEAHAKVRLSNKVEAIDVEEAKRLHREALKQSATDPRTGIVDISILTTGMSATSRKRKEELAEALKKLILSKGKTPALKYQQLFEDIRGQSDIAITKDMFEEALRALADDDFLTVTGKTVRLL

[2] = target: Macrophage-stimulating protein receptor (Homo sapiens, UniProt Q04912)
Sequence of Macrophage-stimulating protein receptor (Q04912 25-304 limits assumed): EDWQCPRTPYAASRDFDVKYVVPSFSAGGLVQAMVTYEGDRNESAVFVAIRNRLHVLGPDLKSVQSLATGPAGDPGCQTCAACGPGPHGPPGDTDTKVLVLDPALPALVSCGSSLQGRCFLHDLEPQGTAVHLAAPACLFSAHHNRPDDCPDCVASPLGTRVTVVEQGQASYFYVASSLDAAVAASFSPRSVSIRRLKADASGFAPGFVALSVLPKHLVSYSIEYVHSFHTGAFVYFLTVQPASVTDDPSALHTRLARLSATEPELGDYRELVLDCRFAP
Sequence of Macrophage-stimulating protein receptor (Q04912 310-1400 limits assumed): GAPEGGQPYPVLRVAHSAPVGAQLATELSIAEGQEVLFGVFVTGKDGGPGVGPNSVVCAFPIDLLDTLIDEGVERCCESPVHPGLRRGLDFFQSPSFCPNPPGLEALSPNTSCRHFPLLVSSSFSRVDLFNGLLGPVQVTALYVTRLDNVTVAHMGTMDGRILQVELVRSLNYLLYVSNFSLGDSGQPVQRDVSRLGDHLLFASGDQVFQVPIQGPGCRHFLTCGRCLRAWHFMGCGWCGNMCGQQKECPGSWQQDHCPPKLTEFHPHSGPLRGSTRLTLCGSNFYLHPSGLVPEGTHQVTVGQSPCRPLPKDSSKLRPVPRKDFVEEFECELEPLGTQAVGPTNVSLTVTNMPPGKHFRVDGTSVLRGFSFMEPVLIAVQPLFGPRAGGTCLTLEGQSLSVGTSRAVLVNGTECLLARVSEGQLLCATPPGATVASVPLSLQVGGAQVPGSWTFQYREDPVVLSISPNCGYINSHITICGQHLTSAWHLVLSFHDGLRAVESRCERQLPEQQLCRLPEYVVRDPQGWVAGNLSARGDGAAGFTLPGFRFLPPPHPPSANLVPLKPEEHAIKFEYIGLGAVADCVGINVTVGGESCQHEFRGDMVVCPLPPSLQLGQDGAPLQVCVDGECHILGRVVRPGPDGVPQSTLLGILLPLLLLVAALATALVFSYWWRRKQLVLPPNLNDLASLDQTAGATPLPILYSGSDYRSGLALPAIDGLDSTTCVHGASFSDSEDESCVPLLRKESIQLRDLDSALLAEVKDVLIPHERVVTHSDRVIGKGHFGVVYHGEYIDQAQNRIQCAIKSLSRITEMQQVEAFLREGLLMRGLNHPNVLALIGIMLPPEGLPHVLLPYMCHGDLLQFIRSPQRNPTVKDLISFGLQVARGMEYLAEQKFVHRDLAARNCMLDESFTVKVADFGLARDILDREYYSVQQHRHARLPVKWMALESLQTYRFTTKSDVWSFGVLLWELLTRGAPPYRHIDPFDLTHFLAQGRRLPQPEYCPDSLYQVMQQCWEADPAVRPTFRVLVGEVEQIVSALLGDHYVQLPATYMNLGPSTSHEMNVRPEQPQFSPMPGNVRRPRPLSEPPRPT

[3] = target: T2, Ribosyldihydronicotinamide dehydrogenase [quinone] (Homo sapiens, UniProt P16083)
T2 sequence (P16083 whole entry): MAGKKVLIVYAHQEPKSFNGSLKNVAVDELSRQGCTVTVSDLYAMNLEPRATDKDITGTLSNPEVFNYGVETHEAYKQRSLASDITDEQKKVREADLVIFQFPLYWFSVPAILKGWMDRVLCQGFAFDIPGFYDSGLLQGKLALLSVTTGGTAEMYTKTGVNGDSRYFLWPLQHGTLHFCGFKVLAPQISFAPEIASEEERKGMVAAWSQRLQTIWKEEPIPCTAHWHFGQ

[4] = target: 5'-AMP-activated protein kinase catalytic subunit alpha-1 (Homo sapiens, UniProt Q13131)
Sequence of 5'-AMP-activated protein kinase catalytic subunit alpha-1 (Q13131 whole entry): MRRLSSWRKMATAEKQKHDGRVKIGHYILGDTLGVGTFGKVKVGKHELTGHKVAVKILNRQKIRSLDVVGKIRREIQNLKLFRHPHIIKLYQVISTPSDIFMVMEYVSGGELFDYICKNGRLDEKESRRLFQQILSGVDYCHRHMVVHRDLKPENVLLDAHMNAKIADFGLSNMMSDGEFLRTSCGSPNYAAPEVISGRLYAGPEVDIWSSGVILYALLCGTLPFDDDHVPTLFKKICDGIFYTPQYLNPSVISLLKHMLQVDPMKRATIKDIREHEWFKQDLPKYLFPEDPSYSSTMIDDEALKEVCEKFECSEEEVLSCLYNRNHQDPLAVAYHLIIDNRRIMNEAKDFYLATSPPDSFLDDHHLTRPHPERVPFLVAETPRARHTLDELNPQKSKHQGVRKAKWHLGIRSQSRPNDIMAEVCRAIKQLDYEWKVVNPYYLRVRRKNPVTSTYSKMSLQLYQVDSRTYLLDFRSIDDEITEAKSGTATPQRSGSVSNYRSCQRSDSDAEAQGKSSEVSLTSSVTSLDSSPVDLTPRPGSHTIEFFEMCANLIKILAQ

[5] = target: T3, Serine/threonine-protein kinase ULK1 (Homo sapiens, UniProt O75385)
T3 sequence (O75385 whole entry): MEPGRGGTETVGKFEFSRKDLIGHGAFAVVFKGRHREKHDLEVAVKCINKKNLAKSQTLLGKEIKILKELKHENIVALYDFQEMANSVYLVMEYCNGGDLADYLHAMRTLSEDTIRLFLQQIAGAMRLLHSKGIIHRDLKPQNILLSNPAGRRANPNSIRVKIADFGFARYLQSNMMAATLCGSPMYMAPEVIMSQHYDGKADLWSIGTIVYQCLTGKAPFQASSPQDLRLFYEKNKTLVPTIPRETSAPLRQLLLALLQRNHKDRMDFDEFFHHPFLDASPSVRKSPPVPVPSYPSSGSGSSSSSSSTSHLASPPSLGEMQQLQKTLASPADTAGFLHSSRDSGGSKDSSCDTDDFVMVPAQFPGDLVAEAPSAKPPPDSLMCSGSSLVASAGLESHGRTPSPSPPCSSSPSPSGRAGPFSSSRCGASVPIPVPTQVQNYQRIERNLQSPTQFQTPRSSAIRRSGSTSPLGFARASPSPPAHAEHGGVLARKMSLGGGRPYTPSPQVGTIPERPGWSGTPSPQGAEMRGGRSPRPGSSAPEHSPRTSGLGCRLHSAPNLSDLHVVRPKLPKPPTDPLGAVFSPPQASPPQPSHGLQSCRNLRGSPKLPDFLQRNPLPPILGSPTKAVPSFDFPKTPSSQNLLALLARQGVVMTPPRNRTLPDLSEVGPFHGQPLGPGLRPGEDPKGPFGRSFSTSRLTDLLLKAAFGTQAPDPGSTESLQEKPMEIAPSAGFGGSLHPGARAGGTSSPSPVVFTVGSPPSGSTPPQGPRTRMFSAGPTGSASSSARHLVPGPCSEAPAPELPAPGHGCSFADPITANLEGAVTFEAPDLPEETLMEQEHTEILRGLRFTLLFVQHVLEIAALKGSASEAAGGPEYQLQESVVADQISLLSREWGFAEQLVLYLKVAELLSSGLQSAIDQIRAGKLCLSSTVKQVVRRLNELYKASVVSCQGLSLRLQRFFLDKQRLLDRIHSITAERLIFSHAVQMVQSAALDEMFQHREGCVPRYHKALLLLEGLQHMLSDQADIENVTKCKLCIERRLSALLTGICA

## COc1cccc2cc(-c3nc([C@H]4CC[C@H](C(=O)O)CC4)n4ncnc(N)c34)[nH]c12 [OSI-027]
[1]
  Kd: > 30 µM (inactive)
[2]
  Kd: > 30 µM (inactive)
[3]
  Kd: 1.39 µM (active)
[4]
  Kd: > 30 µM (inactive)
[5]
  Kd: > 30 µM (inactive)

## CNC(=O)c1ccc(Nc2ncc(C(F)(F)F)c(NCc3nccnc3N(C)S(C)(=O)=O)n2)cc1 [DEFACTINIB]
[1]
  Kd: > 30 µM (inactive)
[2]
  Kd: > 30 µM (inactive)
[3]
  Kd: > 30 µM (inactive)
[4]
  Kd: > 30 µM (inactive)
[5]
  Kd: > 30 µM (inactive)

## Cc1ccc(C(=O)Nc2ccc(Oc3cc4cnn(C)c4cc3-c3cn[nH]c3)c(F)c2)c(=O)n1-c1ccc(F)cc1 [MERESTINIB]
[1]
  Kd: > 30 µM (inactive)
[2]
  Kd: 0.232 µM
[3]
  Kd: > 30 µM (inactive)
[4]
  Kd: > 30 µM (inactive)
[5]
  Kd: > 30 µM (inactive)

## CNC(=O)c1cccc(-c2ccc3c(N4CCOC[C@@H]4C)nc(N4CCOC[C@@H]4C)nc3n2)c1 [VISTUSERTIB]
[1]
  Kd: > 30 µM (inactive)
[2]
  Kd: > 30 µM (inactive)
[3]
  Kd: > 30 µM (inactive)
[4]
  Kd: > 30 µM (inactive)
[5]
  Kd: > 30 µM (inactive)

## c1cc(OCCN2CCCCC2)cc(-c2n[nH]c3ccc(-c4nc[nH]n4)cc23)c1 [CC-401]
[1]
  Kd: > 30 µM (inactive)
[2]
  Kd: > 30 µM (inactive)
[3]
  Kd: 1.41 µM (active)
[4]
  Kd: > 30 µM (inactive)
[5]
  Kd: > 30 µM (inactive)

## C=CC(=O)Nc1cc(Nc2nccc(-c3cn(C)c4ccccc34)n2)c(OC)cc1N(C)CCN(C)C [OSIMERTINIB]
[1]
  Kd: > 30 µM (inactive)
[2]
  Kd: > 30 µM (inactive)
[3]
  Kd: 3.66 µM (active)
[4]
  Kd: > 30 µM (inactive)
[5]
  Kd: > 30 µM (inactive)

## COc1cc(Nc2ncc(F)c(Nc3ccc4c(n3)N(COP(=O)(O)O)C(=O)C(C)(C)O4)n2)cc(OC)c1OC [FOSTAMATINIB]
[1]
  Kd: > 30 µM (inactive)
[2]
  Kd: 2.13 µM (active)
[3]
  Kd: > 30 µM (inactive)
[4]
  Kd: > 30 µM (inactive)
[5]
  Kd: > 30 µM (inactive)

## COc1ccc2c(OCc3nnc4ccc(-c5ccccc5)nn34)ccnc2c1 [AMG-208]
[1]
  Kd: > 30 µM (inactive)
[2]
  Kd: > 30 µM (inactive)
[3]
  Kd: > 30 µM (inactive)
[4]
  Kd: > 30 µM (inactive)
[5]
  Kd: > 30 µM (inactive)

## CC(C)CC(=O)Nc1[nH]nc2c1CN(C(=O)C1CCN(C)CC1)C2(C)C [PHA-793887]
[1]
  Kd: > 30 µM (inactive)
[2]
  Kd: > 30 µM (inactive)
[3]
  Kd: > 30 µM (inactive)
[4]
  Kd: > 30 µM (inactive)
[5]
  Kd: 0.838 µM

## CC[C@@](C)(Nc1ccnc(-c2c[nH]c3ncccc23)n1)C(=O)NCC(F)(F)F [DECERNOTINIB]
[1]
  Kd: > 30 µM (inactive)
[2]
  Kd: > 30 µM (inactive)
[3]
  Kd: > 30 µM (inactive)
[4]
  Kd: > 30 µM (inactive)
[5]
  Kd: > 30 µM (inactive)

## O=c1[nH]c([C@@H]2CCCN2)nc2c1oc1ccc(Cl)cc12
[1]
  Kd: > 30 µM (inactive)
[2]
  Kd: > 30 µM (inactive)
[3]
  Kd: > 30 µM (inactive)
[4]
  Kd: > 30 µM (inactive)
[5]
  Kd: > 30 µM (inactive)

## Cc1c(Cn2c(C)nc3c(C(=O)O)cc(N4CCOCC4)cc32)cccc1C(F)(F)F [GSK-2636771]
[1]
  Kd: > 30 µM (inactive)
[2]
  Kd: > 30 µM (inactive)
[3]
  Kd: > 30 µM (inactive)
[4]
  Kd: > 30 µM (inactive)
[5]
  Kd: > 30 µM (inactive)

## Cn1cc(-c2[nH]c3cc(NC(=O)[C@H](N)C4CCCCC4)cc4c3c2C=NNC4=O)cn1
[1]
  Kd: > 30 µM (inactive)
[2]
  Kd: > 30 µM (inactive)
[3]
  Kd: > 30 µM (inactive)
[4]
  Kd: 1.32 µM (active)
[5]
  Kd: > 30 µM (inactive)

## NC(=O)c1ccc(N(C(N)=O)c2c(F)cccc2F)nc1-c1ccc(F)cc1F [VX-702]
[1]
  Kd: > 30 µM (inactive)
[2]
  Kd: > 30 µM (inactive)
[3]
  Kd: > 30 µM (inactive)
[4]
  Kd: > 30 µM (inactive)
[5]
  Kd: > 30 µM (inactive)

## COCCN1CCN(Cc2ccc(-c3n[nH]c4c3C(=O)c3c(NC(=O)NN5CCOCC5)cccc3-4)cc2)CC1 [RGB-286638]
[1]
  Kd: > 30 µM (inactive)
[2]
  Kd: > 30 µM (inactive)
[3]
  Kd: > 30 µM (inactive)
[4]
  Kd: > 30 µM (inactive)
[5]
  Kd: > 30 µM (inactive)

## CCc1nc(C(N)=O)c(Nc2ccc(N3CCC(N4CCN(C)CC4)CC3)c(OC)c2)nc1NC1CCOCC1 [GILTERITINIB]
[1]
  Kd: > 30 µM (inactive)
[2]
  Kd: 0.804 µM (active)
[3]
  Kd: 1.7 µM (active)
[4]
  Kd: > 30 µM (inactive)
[5]
  Kd: > 30 µM (inactive)

## CCN1CCN(Cc2ccc(Nc3ncc(F)c(-c4cc(F)c5nc(C)n(C(C)C)c5c4)n3)nc2)CC1 [ABEMACICLIB]
[1]
  Kd: > 30 µM (inactive)
[2]
  Kd: > 30 µM (inactive)
[3]
  Kd: > 30 µM (inactive)
[4]
  Kd: > 30 µM (inactive)
[5]
  Kd: > 30 µM (inactive)

## COc1cccc(Nc2ncnn3ccc(CN4CC[C@@H](N)[C@H](O)C4)c23)c1 [BMS-690514]
[1]
  Kd: > 30 µM (inactive)
[2]
  Kd: > 30 µM (inactive)
[3]
  Kd: > 30 µM (inactive)
[4]
  Kd: > 30 µM (inactive)
[5]
  Kd: > 30 µM (inactive)

## C=CC(=O)Nc1cccc(Nc2nc(Nc3ccc(N4CCN(C(C)=O)CC4)cc3OC)ncc2C(F)(F)F)c1 [ROCILETINIB]
[1]
  Kd: > 30 µM (inactive)
[2]
  Kd: > 30 µM (inactive)
[3]
  Kd: > 30 µM (inactive)
[4]
  Kd: > 30 µM (inactive)
[5]
  Kd: > 30 µM (inactive)

## O=C(NOC[C@H](O)CO)c1ccc(F)c(F)c1Nc1ccc(I)cc1F [MIRDAMETINIB]
[1]
  Kd: > 30 µM (inactive)
[2]
  Kd: > 30 µM (inactive)
[3]
  Kd: > 30 µM (inactive)
[4]
  Kd: > 30 µM (inactive)
[5]
  Kd: > 30 µM (inactive)

## O=C(NC[C@H](O)CO)c1ccncc1Nc1ccc(I)cc1F [PIMASERTIB]
[1]
  Kd: > 30 µM (inactive)
[2]
  Kd: > 30 µM (inactive)
[3]
  Kd: > 30 µM (inactive)
[4]
  Kd: > 30 µM (inactive)
[5]
  Kd: > 30 µM (inactive)

## Cc1cc(-c2cc(OC(=O)c3ccccc3)ccc2Cl)cc2nnc(Nc3ccc(OCCN4CCCC4)cc3)nc12 [TG100-801]
[1]
  Kd: > 30 µM (inactive)
[2]
  Kd: > 30 µM (inactive)
[3]
  Kd: > 30 µM (inactive)
[4]
  Kd: > 30 µM (inactive)
[5]
  Kd: > 30 µM (inactive)

## O=C(Nc1ccc(OC(F)(F)F)cc1)c1sccc1NCc1ccnc2ccccc12 [OSI-930]
[1]
  Kd: > 30 µM (inactive)
[2]
  Kd: > 30 µM (inactive)
[3]
  Kd: > 30 µM (inactive)
[4]
  Kd: > 30 µM (inactive)
[5]
  Kd: > 30 µM (inactive)

## N#CCNC(=O)c1ccc(-c2ccnc(Nc3ccc(N4CCOCC4)cc3)n2)cc1 [MOMELOTINIB]
[1]
  Kd: > 30 µM (inactive)
[2]
  Kd: > 30 µM (inactive)
[3]
  Kd: > 30 µM (inactive)
[4]
  Kd: > 30 µM (inactive)
[5]
  Kd: > 30 µM (inactive)

## C[C@@H]1COC(Nc2ccc3ncnc(Nc4ccc(OCc5nccs5)c(Cl)c4)c3c2)=N1 [VARLITINIB]
[1]
  Kd: > 30 µM (inactive)
[2]
  Kd: > 30 µM (inactive)
[3]
  Kd: > 30 µM (inactive)
[4]
  Kd: > 30 µM (inactive)
[5]
  Kd: > 30 µM (inactive)

## Cc1c(NC(=O)OC[C@@H]2COCCN2)cn2ncnc(Nc3ccc4c(cnn4Cc4cccc(F)c4)c3)c12 [AC-480]
[1]
  Kd: > 30 µM (inactive)
[2]
  Kd: > 30 µM (inactive)
[3]
  Kd: > 30 µM (inactive)
[4]
  Kd: > 30 µM (inactive)
[5]
  Kd: > 30 µM (inactive)
